Measured values from patent publication US20250011873A1, “ENDOCRINE TREATMENT OF HORMONE RECEPTOR POSITIVE BREAST CANCER TYPED AS HAVING A LOW RISK OF RECURRENCE” (Agendia N.V., priority 2021, published 2025).

Experiments:
[1] = system: hormone-receptor (+) breast cancer; experiment: NSABP B-42 randomized, double-blinded, placebo-controlled trial of extended adjuvant letrozole, analysed by MammaPrint risk group; type: in vivo, human; conditions: for HR, DFS: B-42 primary endpoint; for 10-year rate (%), letrozole arm (DFS rows: disease-free survival rate; DR/BCFI rows: event rate) / # Events (Letrozole): letrozole arm; for Abs. benefit (%): 10-year
Excerpt: NSABP B42 (Mamounas et al., 2019. Lancet Oncol 20: 88-99) refers to a randomized, double-blinded, placebo-controlled clinical trial of extended adjuvant endocrine therapy (tx) with letrozole (L) in postmenopausal women with hormone-receptor (+) breast cancer (BC) who have completed previous adjuvant tx with an aromatase inhibitor (AI). A pre-treatment gene expression biomarker such as MammaPrint may identify breast cancers at risk of recurrence in years 5 to 10 after diagnosis, for whom EET will be beneficial.
The MammaPrint test uses the expression levels of 70 genes to assess a patient's risk of recurrence. For the primary analysis, patient tumor samples were classified into a High Risk or Low Risk group by the 0.00 threshold in the MammaPrint index (high up to and low above 0.00 index, respectively). Recently, a subgroup of ultralow tumors is defined by MammaPrint index>+0.355 (Esserman et al., 2017. JAMA Oncol 3: 1503-1510).
Population for all analyses was based on the intention-to-treat (ITT) principle: patients were analyzed according to their randomized treatment, regardless of what they actually receive. This ensures the strengths of randomization are kept (an equal balance of potential prognostic factors between both groups), but it estimates the treatment effect in clinical practice.
Within the total study population and within each treatment arm, univariate Cox Regression Analysis were performed for MammaPrint risk groups and all available clinical, pathological, therapeutic variables. Summary statistics from the Cox model included the number of patients analyzed, hazard ratio (with 95% confidence interval (CI)) of the comparison and the according p-value. A p-value less than 0.05 (two sided) was considered statistically significance.
Differences in primary and secondary endpoints between placebo and letrozole groups were assessed by stratified log-rank tests. Stratification factors included original stratification factors from the parent B-42 trial, i.e., pathological node status at diagnosis (negative vs positive), prior tamoxifen use (no vs yes), and lowest bone mineral density T score in the lumbosacral spine, total hip, or femoral neck (≤−2.0 or >−2.0 SD).
Multivariate Cox Regression Analysis were utilized to examine the interaction between EET treatment and MP Risk index. Secondary elaborated multivariate analyses were performed to examine interaction with MammaPrint, EET treatment and any clinical and pathologic variable. Summary statistics from these Cox models include the number of patients analyzed, hazard ratios (with 95% CI) of the comparisons and the according p-values.
The following event variables were used for appropriate analyses: • Distant Recurrence (DR): yes vs. no • Time to DR: continuous months • Overall Survival (OS): yes vs. no • Time to Death: continuous months • Disease Free Survival (DFS): yes vs. no • Time to DFS: continuous months • Breast Cancer Free Interval (BCFI): yes vs. no • Time to BCFI: continuous months
A Kaplan-Meier curve with corresponding Log-rank test was used to visualize the survival distribution function for each MammaPrint risk group. Cox PH models stratified by nodal status, prior tamoxifen use, and lowest bone mineral density T-score was used to explore the association among risk factors listed to survival outcomes. This was done for each treatment arm. Kaplan-Meier curves were also used to visualize the survival distribution function for each treatment group.
NSABP-B42 assessed the effect of 5 years of letrozole after 5 years of prior endocrine therapy in postmenopausal women with early stage hormone receptor positive (HR+) breast cancer. Randomization occurred five years after diagnosis.
There were 3,966 patients randomly assigned to placebo or letrozole. Among them, 63 were excluded due to either no clinical assessment or not being at risk for the primary DFS endpoint for the B-42 parent trial. Blocks were available for 2,339 patients who consented for future research. […]

[2] = system: hormone-receptor (+) breast cancer; conditions: cited from earlier work
[3] = system: early-stage ER positive breast cancer; conditions: tamoxifen for five years; during the treatment period; cited from earlier work
[4] = BCFI, MP Risk Group H, letrozole vs placebo
[5] = BCFI, MP Risk Group L, letrozole vs placebo
[6] = BCFI, MP Risk Group LNUL, letrozole vs placebo
[7] = BCFI, MP Risk Group UL, letrozole vs placebo
[8] = DFS, MP Risk Group H, letrozole vs placebo
[9] = DFS, MP Risk Group L, letrozole vs placebo
[10] = DFS, MP Risk Group LNUL, letrozole vs placebo
[11] = DFS, MP Risk Group UL, letrozole vs placebo
[12] = DR, MP Risk Group H, letrozole vs placebo
[13] = DR, MP Risk Group L, letrozole vs placebo
[14] = DR, MP Risk Group LNUL, letrozole vs placebo
[15] = DR, MP Risk Group UL, letrozole vs placebo
[16] = all patients of the translational MP cohort, letrozole vs placebo

## N#Cc1ccc(C(c2ccc(C#N)cc2)n2cncn2)cc1 [Letrozole, letrozole]
[1]; 6.9 years of median follow-up
  HR, DFS: 0.85
[1]; updated results, 10.3 years of median follow-up
  HR, DFS: 0.85
[1]; B-42 secondary endpoint
  reduction of distant recurrence (DR) in the letrozole arm: 28%
[1]; BCFI, MP Risk Group H
  10-year rate (%), letrozole arm (DFS rows: disease-free survival rate; DR/BCFI rows: event rate): 14.6%
  # Events (Letrozole): 42
[1]; [4]
  HR (95% CI): 1.15
  Abs. benefit (%): −3.0%
[1]; BCFI, MP Risk Group H, letrozole vs placebo, listed as letrozole
  HR (95% CI): 1.15 (0.74, 1.79)
[1]; BCFI, MP Risk Group L
  10-year rate (%), letrozole arm (DFS rows: disease-free survival rate; DR/BCFI rows: event rate): 8.4%
  # Events (Letrozole): 44
[1]; [5]
  HR (95% CI): 0.51
  Abs. benefit (%): 7.0%
[1]; BCFI, MP Risk Group L, letrozole vs placebo, listed as letrozole
  HR (95% CI): 0.51 (0.35, 0.74)
[1]; BCFI, MP Risk Group LNUL
  10-year rate (%), letrozole arm (DFS rows: disease-free survival rate; DR/BCFI rows: event rate): 8.7%
  # Events (Letrozole): 36
[1]; [6]
  HR (95% CI): 0.48
  Abs. benefit (%): 7.9%
[1]; BCFI, MP Risk Group LNUL, letrozole vs placebo, listed as letrozole
  HR (95% CI): 0.48 (0.32-0.73)
[1]; BCFI, MP Risk Group UL
  10-year rate (%), letrozole arm (DFS rows: disease-free survival rate; DR/BCFI rows: event rate): 7.3%
  # Events (Letrozole): 8
[1]; [7]
  HR (95% CI): 0.67
  Abs. benefit (%): 4.1%
[1]; BCFI, MP Risk Group UL, letrozole vs placebo, listed as letrozole
  HR (95% CI): 0.67 (0.28, 1.65)
[1]; DFS, MP Risk Group H
  10-year rate (%), letrozole arm (DFS rows: disease-free survival rate; DR/BCFI rows: event rate): 71.2%
  # Events (Letrozole): 91
[1]; [8]
  HR (95% CI): 1.10
  Abs. benefit (%): −1.6%
[1]; DFS, MP Risk Group H, letrozole vs placebo, listed as letrozole
  HR (95% CI): 1.10 (0.82, 1.47)
[1]; DFS, MP Risk Group L
  10-year rate (%), letrozole arm (DFS rows: disease-free survival rate; DR/BCFI rows: event rate): 79.7%
  # Events (Letrozole): 113
[1]; [9]
  HR (95% CI): 0.67
  Abs. benefit (%): 7.8%
[1]; DFS, MP Risk Group L, letrozole vs placebo, listed as letrozole
  HR (95% CI): 0.67 (0.52, 0.85)
[1]; DFS, MP Risk Group LNUL
  10-year rate (%), letrozole arm (DFS rows: disease-free survival rate; DR/BCFI rows: event rate): 78.9%
  # Events (Letrozole): 93
[1]; [10]
  HR (95% CI): 0.64
  Abs. benefit (%): 9.5%
[1]; DFS, MP Risk Group LNUL, letrozole vs placebo, listed as letrozole
  HR (95% CI): 0.64 (0.49, 0.83)
[1]; DFS, MP Risk Group UL
  10-year rate (%), letrozole arm (DFS rows: disease-free survival rate; DR/BCFI rows: event rate): 82.5%
  # Events (Letrozole): 20
[1]; [11]
  HR (95% CI): 0.82
  Abs. benefit (%): 1.8%
[1]; DFS, MP Risk Group UL, letrozole vs placebo, listed as letrozole
  HR (95% CI): 0.82 (0.45, 1.48)
[1]; DR, MP Risk Group H
  10-year rate (%), letrozole arm (DFS rows: disease-free survival rate; DR/BCFI rows: event rate): 4.9%
  # Events (Letrozole): 15
[1]; [12]
  HR (95% CI): 0.65
  Abs. benefit (%): 2.4%
[1]; DR, MP Risk Group H, letrozole vs placebo, listed as letrozole
  HR (95% CI): 0.65 (0.34, 1.24)
[1]; DR, MP Risk Group L
  10-year rate (%), letrozole arm (DFS rows: disease-free survival rate; DR/BCFI rows: event rate): 3.5%
  # Events (Letrozole): 20
[1]; [13]
  HR (95% CI): 0.43
  Abs. benefit (%): 3.7%
[1]; DR, MP Risk Group L, letrozole vs placebo, listed as letrozole
  HR (95% CI): 0.43 (0.25, 0.74)
[1]; DR, MP Risk Group LNUL
  10-year rate (%), letrozole arm (DFS rows: disease-free survival rate; DR/BCFI rows: event rate): 3.6%
  # Events (Letrozole): 17
[1]; [14]
  HR (95% CI): 0.42
  Abs. benefit (%): 4.0%
[1]; DR, MP Risk Group LNUL, letrozole vs placebo, listed as letrozole
  HR (95% CI): 0.42 (0.23, 0.76)
[1]; DR, MP Risk Group UL
  10-year rate (%), letrozole arm (DFS rows: disease-free survival rate; DR/BCFI rows: event rate): 2.9%
  # Events (Letrozole): 3
[1]; [15]
  HR (95% CI): 0.53
  Abs. benefit (%): 3.0%
[1]; DR, MP Risk Group UL, letrozole vs placebo, listed as letrozole
  HR (95% CI): 0.53 (0.13, 2.15)
[1]; Excluded B-42 cohort, letrozole vs placebo
  HR, rate of DR: 0.92
[1]; MP-H subgroup, after 5.2 years (time-dependent analysis)
  HR, BCFI: 2.77
[1]; MP-H subgroup, prior to 5.2 years (time-dependent analysis)
  HR, BCFI: 0.65
[1]; MP-L subgroup, after 5.2 years (time-dependent analysis)
  HR, BCFI: 0.37
[1]; MP-L subgroup, prior to 5.2 years (time-dependent analysis)
  HR, BCFI: 0.65
[1]; [16]
  HR, breast cancer-free interval: 0.70 (0.53, 0.93)
  HR, disease-free survival: 0.81 (0.68, 0.98)
[2]; NSABP B42, extended letrozole therapy compared to the placebo group (Mamounas et al., 2019)
  prolongation of disease-free survival (DFS): no statistically significant prolongation
[2]; NSABP B42, extended letrozole vs placebo (Mamounas et al., 2019)
  reduction in distant recurrence (DR) in the letrozole arm: 28%

## CC/C(=C(\c1ccccc1)c1ccc(OCCN(C)C)cc1)c1ccccc1 [tamoxifen]
[3]
  reduction of recurrence rate compared to placebo: 50%
